Test results published in patent US12286443B2, “Bycyclic JAK inhibitors and uses thereof” (Insilico Medicine IP Limited, priority 2019, dated 2025).
pIC50: −log10 of the molar value.

Legend:
Assay type in all cases: biochemical
JAK3 = target: T1, JAK3 (Homo sapiens, UniProt P52333); experiment: Inhibition of JAK3 kinase, LANCE Ultra TR-FRET assay; settings: 2x ATP 8 μM, 15 min pre-incubation, 90 min reaction, 23° C.
T1 construct: purchased Invitrogen PV4080
T1 sequence (P52333 1-1124): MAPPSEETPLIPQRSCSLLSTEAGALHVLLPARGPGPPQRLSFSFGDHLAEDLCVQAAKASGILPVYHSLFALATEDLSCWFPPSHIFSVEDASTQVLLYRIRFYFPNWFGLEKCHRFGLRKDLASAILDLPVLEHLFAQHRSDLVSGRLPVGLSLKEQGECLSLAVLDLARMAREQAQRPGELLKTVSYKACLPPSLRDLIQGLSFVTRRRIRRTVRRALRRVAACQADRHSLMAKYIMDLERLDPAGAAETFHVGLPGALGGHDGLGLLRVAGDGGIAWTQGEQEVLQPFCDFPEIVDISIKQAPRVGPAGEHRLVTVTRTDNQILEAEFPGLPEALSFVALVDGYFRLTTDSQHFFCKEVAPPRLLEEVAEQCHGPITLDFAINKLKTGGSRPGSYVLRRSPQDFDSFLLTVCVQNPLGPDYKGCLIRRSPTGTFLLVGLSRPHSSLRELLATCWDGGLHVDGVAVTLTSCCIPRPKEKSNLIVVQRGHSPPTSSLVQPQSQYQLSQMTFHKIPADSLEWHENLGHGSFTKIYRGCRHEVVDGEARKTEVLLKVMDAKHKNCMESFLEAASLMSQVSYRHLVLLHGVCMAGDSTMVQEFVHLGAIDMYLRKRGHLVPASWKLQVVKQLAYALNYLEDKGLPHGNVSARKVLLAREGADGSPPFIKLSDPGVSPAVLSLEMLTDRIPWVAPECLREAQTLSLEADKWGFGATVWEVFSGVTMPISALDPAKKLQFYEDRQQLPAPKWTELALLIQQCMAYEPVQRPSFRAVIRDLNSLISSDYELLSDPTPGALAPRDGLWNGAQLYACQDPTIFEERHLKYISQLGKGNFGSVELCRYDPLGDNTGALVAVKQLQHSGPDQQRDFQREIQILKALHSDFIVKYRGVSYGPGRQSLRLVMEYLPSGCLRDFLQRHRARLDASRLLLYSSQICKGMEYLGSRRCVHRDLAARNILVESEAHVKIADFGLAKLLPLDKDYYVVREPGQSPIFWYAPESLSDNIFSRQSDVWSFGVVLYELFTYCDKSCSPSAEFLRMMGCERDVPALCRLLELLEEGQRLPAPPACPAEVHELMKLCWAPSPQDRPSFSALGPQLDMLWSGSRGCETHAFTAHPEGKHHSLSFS
Protocol: (§1) Exemplary compounds were assayed to determine potency in inhibiting activity of JAK1-3 and TYK2 kinases by determining IC50 values.
(§2) The sources of test materials and equipment are as follows: JAK1 (Invitrogen, Cat. No PV4775), JAK2 (Invitrogen, Cat. No PV4210), JAK3 (Invitrogen, Cat. No PV4080), TYK2 (Invitrogen, Cat. No PR8440C), ATP (Sigma, Cat. No. A7699-1G), DMSO (Sigma, Cat. No. D2650), DTT (Sigma, Cat. No. 43815), 384 wells_compound plate (Greiner, Cat. No. 781280), 384 wells_assay plate (Perkin Elmer, Cat. No. 6007299), LANCE Ultra ULight™-JAK-1 peptide (Perkin Elmer, Cat. No. TRF0121), LANCET™ Eu-W1024 Anti-phosphotyrosine (PT66) (Perkin Elmer, Cat. No. AD0069), LANCET™ Detection Buffer(Perkin Elmer, Cat. No. CR97-100).
(§3) The concentrations of test compounds varied from 100 μM to 1.7 nM with 3-fold dilution, 11 points, in duplicates while the concentrations of the reference compound, Tofacitinib, varied from 1 μM to 0.017 nM with 3-fold dilution, 11 points, in duplicates.
(§4) The assay buffer contained 50 mM HEPES (pH 7.5), 0.01% Brij-35, 10 mM MgCl2, 1 mM EDTA, 2 mM DTT. Incubations were carried out at 23° C.
(§5) Prior to the assay, enzyme, peptide substrate and serially diluted test compounds were pre-incubated together in assay buffer (5 μL) for 15 minutes (peptide substrate concentration: 50 nM; JAK enzyme concentrations: 2 nM JAK1; […]; […] and 4 nM TYK2). And the assay was initiated by the addition of 5 μL assay buffer containing 2× final ATP concentration (these are the 2×ATP concentrations: 76 μM JAK1; 24 μM JAK2; 8 μM JAK3 and 30 μM TYK2). Following the 90-minute incubation, antibody conjugated with Eu is dissolved in detection buffer to add into wells and then incubated for 60 minutes. The 10 μL detection buffer contains EDTA to stop the enzymatic reaction. The plate is analyzed by Perkin Elmer Envision on TR-FRET mode. The high ratio of 665/615 represents no inhibition of kinase reaction while the low ratio of 665/615 represents complete inhibition of kinase reaction.
(§6) Curves are fit by XLFIT5 as inhibition rate % vs. log [compound concentration] using 4 parameters logistic model 205.
(§7) In the table, “A” indicates an IC50 of less than 100 nM, “B” indicates an IC50 range from 100 nM to 500 nM; “C” indicates an IC50 range from 500 nM to 2 μM; and “D” indicates an IC50 greater than 2 μM. Also, “na” indicates data is not available.

JAK1 = target: T2, JAK1 (Homo sapiens, UniProt P23458); experiment: Inhibition of JAK1 kinase, LANCE Ultra TR-FRET assay; settings: 2 nM JAK1, 2x ATP 76 μM, 15 min pre-incubation, 90 min reaction, 23° C.
T2 construct: purchased Invitrogen PV4775
T2 sequence (P23458 whole entry): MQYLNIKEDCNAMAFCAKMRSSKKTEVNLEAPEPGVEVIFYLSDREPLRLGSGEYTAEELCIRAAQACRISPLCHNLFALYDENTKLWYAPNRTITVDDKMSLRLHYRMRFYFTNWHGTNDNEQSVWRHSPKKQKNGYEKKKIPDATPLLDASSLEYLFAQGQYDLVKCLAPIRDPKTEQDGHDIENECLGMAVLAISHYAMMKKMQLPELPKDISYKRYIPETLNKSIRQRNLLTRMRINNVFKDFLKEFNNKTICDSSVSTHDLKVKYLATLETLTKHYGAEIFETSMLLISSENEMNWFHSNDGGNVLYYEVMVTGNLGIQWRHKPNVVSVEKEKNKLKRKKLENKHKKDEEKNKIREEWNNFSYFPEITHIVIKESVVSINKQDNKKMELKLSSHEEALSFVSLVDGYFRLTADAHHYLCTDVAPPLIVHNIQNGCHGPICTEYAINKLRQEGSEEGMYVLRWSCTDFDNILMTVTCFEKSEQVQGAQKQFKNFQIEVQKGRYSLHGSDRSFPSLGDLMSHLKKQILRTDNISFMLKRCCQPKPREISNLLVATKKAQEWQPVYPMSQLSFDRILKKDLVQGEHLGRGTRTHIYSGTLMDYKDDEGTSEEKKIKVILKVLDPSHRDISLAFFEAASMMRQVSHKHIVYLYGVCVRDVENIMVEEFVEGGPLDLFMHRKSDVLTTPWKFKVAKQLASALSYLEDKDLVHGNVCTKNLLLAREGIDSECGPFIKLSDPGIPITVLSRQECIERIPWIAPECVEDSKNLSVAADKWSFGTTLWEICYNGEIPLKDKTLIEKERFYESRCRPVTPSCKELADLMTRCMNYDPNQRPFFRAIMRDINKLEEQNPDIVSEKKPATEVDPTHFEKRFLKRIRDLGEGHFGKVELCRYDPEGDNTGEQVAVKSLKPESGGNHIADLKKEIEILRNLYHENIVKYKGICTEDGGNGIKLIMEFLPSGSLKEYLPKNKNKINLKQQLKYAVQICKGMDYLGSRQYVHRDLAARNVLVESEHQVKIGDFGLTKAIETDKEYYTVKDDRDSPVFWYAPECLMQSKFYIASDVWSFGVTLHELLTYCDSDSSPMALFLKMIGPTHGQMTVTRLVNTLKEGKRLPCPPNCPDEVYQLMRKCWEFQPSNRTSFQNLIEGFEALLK
Protocol: as §1, §2, §3, §4, §5, §6, §7

TYK2 = target: T3, TYK2 (Homo sapiens, UniProt P29597); experiment: Inhibition of TYK2 kinase, LANCE Ultra TR-FRET assay; settings: 4 nM TYK2, 2x ATP 30 μM, 15 min pre-incubation, 90 min reaction, 23° C., read-out: tyk IC50
T3 construct: purchased Invitrogen PR8440C
T3 sequence (P29597 whole entry): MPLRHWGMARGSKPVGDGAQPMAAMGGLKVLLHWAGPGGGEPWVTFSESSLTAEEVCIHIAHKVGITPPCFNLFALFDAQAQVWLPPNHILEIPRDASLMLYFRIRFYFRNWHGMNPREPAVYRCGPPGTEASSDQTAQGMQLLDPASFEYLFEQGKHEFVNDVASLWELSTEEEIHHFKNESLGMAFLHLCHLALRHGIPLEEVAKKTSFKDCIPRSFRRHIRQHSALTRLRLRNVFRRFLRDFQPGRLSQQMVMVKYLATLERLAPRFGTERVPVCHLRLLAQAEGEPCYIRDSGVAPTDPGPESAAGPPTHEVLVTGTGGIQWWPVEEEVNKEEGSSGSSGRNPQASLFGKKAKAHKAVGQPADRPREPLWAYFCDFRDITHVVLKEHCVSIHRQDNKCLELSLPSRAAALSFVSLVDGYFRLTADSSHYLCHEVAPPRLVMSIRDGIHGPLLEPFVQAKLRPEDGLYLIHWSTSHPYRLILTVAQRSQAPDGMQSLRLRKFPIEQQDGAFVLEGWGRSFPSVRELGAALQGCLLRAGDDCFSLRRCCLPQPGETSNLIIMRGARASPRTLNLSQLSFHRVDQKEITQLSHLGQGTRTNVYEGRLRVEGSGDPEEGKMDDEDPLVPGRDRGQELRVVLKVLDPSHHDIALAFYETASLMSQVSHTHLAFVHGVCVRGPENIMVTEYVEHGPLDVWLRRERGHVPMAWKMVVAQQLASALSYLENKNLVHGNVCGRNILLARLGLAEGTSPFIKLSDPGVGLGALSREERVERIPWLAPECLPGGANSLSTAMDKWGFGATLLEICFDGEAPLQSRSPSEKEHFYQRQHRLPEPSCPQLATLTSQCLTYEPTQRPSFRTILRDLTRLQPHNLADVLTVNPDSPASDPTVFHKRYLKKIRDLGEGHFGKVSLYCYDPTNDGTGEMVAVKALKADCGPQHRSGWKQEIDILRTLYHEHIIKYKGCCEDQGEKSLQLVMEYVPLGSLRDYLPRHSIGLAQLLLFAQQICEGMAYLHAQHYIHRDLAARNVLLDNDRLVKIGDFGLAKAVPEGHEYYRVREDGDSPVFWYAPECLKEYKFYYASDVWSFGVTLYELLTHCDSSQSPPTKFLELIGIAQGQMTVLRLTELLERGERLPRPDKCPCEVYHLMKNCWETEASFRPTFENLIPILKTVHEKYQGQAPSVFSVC
Protocol: as §1, §2, §3, §4, §5, §6, §7

JAK2 = target: T4, JAK2 (Homo sapiens, UniProt O60674); experiment: Inhibition of JAK2 kinase, LANCE Ultra TR-FRET assay; settings: 2x ATP 24 μM, 15 min pre-incubation, 90 min reaction, 23° C.
T4 construct: purchased Invitrogen PV4210
T4 sequence (O60674 whole entry): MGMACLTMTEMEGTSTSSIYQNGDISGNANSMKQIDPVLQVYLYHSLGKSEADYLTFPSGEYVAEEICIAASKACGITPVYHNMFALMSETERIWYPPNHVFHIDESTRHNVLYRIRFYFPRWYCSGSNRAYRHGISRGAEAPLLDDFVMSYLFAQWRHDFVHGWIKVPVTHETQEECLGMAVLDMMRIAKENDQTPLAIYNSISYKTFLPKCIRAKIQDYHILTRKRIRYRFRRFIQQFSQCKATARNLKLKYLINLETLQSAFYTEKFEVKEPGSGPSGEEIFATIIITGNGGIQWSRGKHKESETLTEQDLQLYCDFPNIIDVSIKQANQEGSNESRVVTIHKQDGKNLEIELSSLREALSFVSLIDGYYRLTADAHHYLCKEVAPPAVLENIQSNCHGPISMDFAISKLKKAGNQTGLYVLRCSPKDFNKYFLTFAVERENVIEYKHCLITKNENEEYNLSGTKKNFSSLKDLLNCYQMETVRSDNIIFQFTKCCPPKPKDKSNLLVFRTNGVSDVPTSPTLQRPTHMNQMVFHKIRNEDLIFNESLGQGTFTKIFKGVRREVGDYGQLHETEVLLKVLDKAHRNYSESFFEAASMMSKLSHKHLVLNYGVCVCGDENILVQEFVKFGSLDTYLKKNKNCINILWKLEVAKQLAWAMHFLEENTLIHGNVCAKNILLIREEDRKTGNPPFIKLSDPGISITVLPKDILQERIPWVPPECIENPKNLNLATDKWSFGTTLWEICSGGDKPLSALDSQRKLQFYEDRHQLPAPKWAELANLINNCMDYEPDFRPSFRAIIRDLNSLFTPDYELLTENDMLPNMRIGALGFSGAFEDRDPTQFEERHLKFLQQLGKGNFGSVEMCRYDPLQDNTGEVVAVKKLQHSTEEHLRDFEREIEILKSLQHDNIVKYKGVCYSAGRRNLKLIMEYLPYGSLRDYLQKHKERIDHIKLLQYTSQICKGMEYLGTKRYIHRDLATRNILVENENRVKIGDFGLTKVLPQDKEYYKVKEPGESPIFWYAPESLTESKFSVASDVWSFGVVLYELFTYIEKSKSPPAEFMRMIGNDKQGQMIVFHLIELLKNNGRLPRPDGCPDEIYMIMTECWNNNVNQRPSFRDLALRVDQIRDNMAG
Protocol: as §1, §2, §3, §4, §5, §6, §7

Row | Compound | pIC50 (JAK3) | pIC50 (JAK1) | pIC50 (TYK2) | pIC50 (JAK2)
1 | O=C(NCCC(F)(F)F)c1nsc2c1CN(c1ncnc3[nH]ccc13)CC2 [Compound 141] | > 7.00 | > 7.00 | 6.30 to 7.00 | > 7.00
2 | CS(=O)(=O)N1CC(CNC(=O)c2noc3c2CN(c2ncnc4[nH]ccc24)CC3)C1 [Compound 168] | 6.30 to 7.00 | 5.70 to 6.30 | < 5.70 | 5.70 to 6.30
3 | O=C(NCCc1ccccn1)c1noc2c1CN(c1ncnc3[nH]ccc13)CC2 [Compound 153] | 6.30 to 7.00 | 5.70 to 6.30 | < 5.70 | 5.70 to 6.30
4 | O=C(NCCC(F)(F)F)c1nn(CCCCc2ccccc2)c2c1CN(c1ncnc3[nH]ccc13)CC2 [Compound 116] | 6.30 to 7.00 | 6.30 to 7.00 | < 5.70 | < 5.70
5 | O=C(NCCN1CCOCC1)c1noc2c1CN(c1ncnc3[nH]ccc13)CC2 [Compound 162] | 5.70 to 6.30 | < 5.70 | < 5.70 | < 5.70
6 | Cn1nc(C(=O)N[C@H]2C[C@H](C(=O)NS(C)(=O)=O)C2)c2c1CCN(c1ncnc3[nH]ccc13)C2 [Compound 125] | 6.30 to 7.00 | 6.30 to 7.00 | < 5.70 | 5.70 to 6.30
7 | O=C(NCCS(=O)(=O)N1CCC1)c1noc2c1CN(c1ncnc3[nH]ccc13)CC2 [Compound 134] | 6.30 to 7.00 | 5.70 to 6.30 | < 5.70 | 5.70 to 6.30
8 | CCn1nc(C(=O)CC#N)c2c1CCN(c1ncnc3[nH]ccc13)C2 [Compound 119] | 5.70 to 6.30 | – | – | 5.70 to 6.30
9 | O=C(NCCC(F)(F)F)c1nn(-c2ccccc2)c2c1CN(c1ncnc3[nH]ccc13)CC2 [Compound 114] | > 7.00 | 6.30 to 7.00 | 5.70 to 6.30 | 5.70 to 6.30
10 | O=C(NCCC(F)(F)F)c1nn(Cc2ccccc2)c2c1CN(c1ncnc3[nH]ccc13)CC2 [Compound 111] | > 7.00 | 6.30 to 7.00 | < 5.70 | 5.70 to 6.30
11 | O=C(NCCC1(O)CC(F)(F)C1)c1noc2c1CN(c1ncnc3[nH]ccc13)CC2 [Compound 149] | 6.30 to 7.00 | 5.70 to 6.30 | < 5.70 | 5.70 to 6.30
12 | O=C(NCCS(=O)(=O)N1CCCC1)c1noc2c1CN(c1ncnc3[nH]ccc13)CC2 [Compound 135] | 6.30 to 7.00 | 6.30 to 7.00 | < 5.70 | 6.30 to 7.00
13 | Cn1cc(C(=O)NCCC(F)(F)F)c2c1CCN(c1ncnc3[nH]ccc13)C2 [Compound 130] | > 7.00 | > 7.00 | 6.30 to 7.00 | 6.30 to 7.00
14 | O=C(NCCC(F)(F)F)c1nn(CCCc2ccccn2)c2c1CN(c1ncnc3[nH]ccc13)CC2 [Compound 108] | 6.30 to 7.00 | < 5.70 | < 5.70 | < 5.70
15 | Cn1nc(C(=O)NCCC(F)(F)F)c2c1CCN(c1ncnc3[nH]ccc13)C2 [Compound 107] | > 7.00 | > 7.00 | 5.70 to 6.30 | 6.30 to 7.00
16 | CN(C)S(=O)(=O)CCNC(=O)c1noc2c1CN(c1ncnc3[nH]ccc13)CC2 [Compound 156] | 6.30 to 7.00 | 6.30 to 7.00 | < 5.70 | 6.30 to 7.00
17 | CCn1nc(C(=O)NCCC(F)(F)F)c2c1CCN(c1ncnc3[nH]ccc13)C2 [Compound 112] | > 7.00 | 6.30 to 7.00 | < 5.70 | 5.70 to 6.30
18 | O=C(NCCC(F)(F)F)c1noc2c1CN(c1ncnc3[nH]cnc13)CC2 [Compound 188] | 6.30 to 7.00 | 6.30 to 7.00 | < 5.70 | 5.70 to 6.30
19 | O=C(NCCC1(F)COC1)c1noc2c1CN(c1ncnc3[nH]ccc13)CC2 [Compound 147] | 6.30 to 7.00 | 6.30 to 7.00 | < 5.70 | 6.30 to 7.00
20 | CCS(=O)(=O)NC(=O)[C@H]1C[C@H](NC(=O)c2nn(C)c3c2CN(c2ncnc4[nH]ccc24)CC3)C1 [Compound 126] | 6.30 to 7.00 | 6.30 to 7.00 | < 5.70 | 5.70 to 6.30

Results, then the compound that gave them:

Row | pIC50 (JAK3) | pIC50 (JAK1) | pIC50 (TYK2) | pIC50 (JAK2) | Compound
21 | 5.70 to 6.30 | 5.70 to 6.30 | < 5.70 | < 5.70 | O=C(NCCN1CCS(=O)(=O)CC1)c1noc2c1CN(c1ncnc3[nH]ccc13)CC2 [Compound 161]
22 | > 7.00 | 6.30 to 7.00 | < 5.70 | 6.30 to 7.00 | O=C(NC[C@@H]1CC[C@@H]1O)c1noc2c1CN(c1ncnc3[nH]ccc13)CC2 (relative stereo) [Compound 150-2]
23 | 6.30 to 7.00 | 6.30 to 7.00 | < 5.70 | 5.70 to 6.30 | O=C(NCCC(F)(F)F)C1=NOC2CN(c3ncnc4[nH]ccc34)CC12 (centres unmarked) [Compound 187]
24 | > 7.00 | 6.30 to 7.00 | < 5.70 | 6.30 to 7.00 | O=C(NCCCC1(O)CC1)c1noc2c1CN(c1ncnc3[nH]ccc13)CC2 [Compound 144]
25 | 6.30 to 7.00 | 5.70 to 6.30 | < 5.70 | 5.70 to 6.30 | CS(=O)(=O)N1CC(CCNC(=O)c2noc3c2CN(c2ncnc4[nH]ccc24)CC3)C1 [Compound 169]
26 | 6.30 to 7.00 | 6.30 to 7.00 | < 5.70 | 5.70 to 6.30 | CS(=O)(=O)N1CCN(CCNC(=O)c2noc3c2CN(c2ncnc4[nH]ccc24)CC3)CC1 [Compound 167]
27 | > 7.00 | 6.30 to 7.00 | 6.30 to 7.00 | 6.30 to 7.00 | FC(F)(F)CCNCc1n[nH]c2c1CN(c1ncnc3[nH]ccc13)CC2 [Compound 131]
28 | 6.30 to 7.00 | 6.30 to 7.00 | < 5.70 | 5.70 to 6.30 | CCCS(=O)(=O)NC(=O)[C@H]1C[C@H](NC(=O)c2nn(C)c3c2CN(c2ncnc4[nH]ccc24)CC3)C1 [Compound 127]
29 | > 7.00 | > 7.00 | 5.70 to 6.30 | > 7.00 | O=C(NCC(CO)C(F)(F)F)c1noc2c1CN(c1ncnc3[nH]ccc13)CC2 (centres unmarked) [Compound 151]
30 | 5.70 to 6.30 | – | – | 6.30 to 7.00 | N#Cc1ccc(-c2nn(CCO)c3c2CN(c2ncnc4[nH]ccc24)CC3)cc1 [Compound 120]
